Reference: patent EP0945138A1, “Transfection particles” (Université Louis Pasteur de Strasbourg, priority 1997, dated 1999)

Assays:
Type in all cases: physicochemical
[1] = Determination of the critical micelle concentration (c.m.c.) with a Langmuir balance, without DNA; details: for CMC / CMC without DNA: MES buffer 20 mM pH 6 containing 10 mM DTT; for c.m.c.: n-alkyl esters of cysteine by chain length, Langmuir balance, 20 mM MES buffer, pH 6
Protocol: Clean monomolecular DNA collapse is generally expected only for detergent concentrations below the critical micelle concentration (c.m.c.). Several n-alkyl esters of cysteine were synthesized by DMAP-catalyzed dicyclohexylcarbodiimide (DCC) dehydration and their c.m.c.'s were determined with a Langmuir balance (20 mM MES buffer, pH 6), providing the following results (n-alkyl chain length / c.m.c.): dodecane / 15 µM; undecane / 80 µM; decane / 320 µM; octane /> 2000 µM. Typical working plasmid concentrations for gene delivery experiments being in the 50 µM range, the decane chain is a safe choice. The weakly basic nature of the cysteine ester primary amine function (pKa= 6.8) is insufficient for simultaneous DNA binding (which requires a protonated detergent) and reasonable thiol oxidation rates in slightly basic medium. The amine function was therefore converted into a highly basic guanidine which is known to interact strongly with DNA (C10 -CG+, Fig. 2).
(§1) i) c.m.c. of a detergent with C8, C10, C11 and C12 cysteine Measurement of the c.m.c. was acomplished with a Langmuir balance in a MES buffer (20 mM pH 6) containing 10 mM DTT. When representing the surface tension as a logarithmic function of the detergent concentration a break at the c.m.c. was observed (Fig. 10). Applying this method c.m.c.'s of the compounds having different chain length (C8, C10, C11, C12) were determined.

pCMV-luc plasmid DNA = test: Agarose gel electrophoresis: physical and chemical stability of the complexes; details: 1% agarose gel, 40 mM Tris-acetate buffer pH 8
Protocol: In a series of experiments, the reversibility of complex formation as well as the stability of complexed DNA towards degradation were assessed by electrophoresis (Fig. 5). […] Yet the cationic lipid/DNA particles could be destroyed either with excess sodium dodecyl sulfate detergent (SDS, lane 3) or by converting the lipid back to the original C10 -CG+ detergent with excess reducing dithiothreitol (DTT, lane 4). Serum nucleases present in cell culture medium rapidly degrade supercoiled plasmid DNA (lanes 1 and 8) into a smear of fragments with many nicks (lane 5).
1% agarose gel electrophoresis (90 min at 8 V/cm in 40 mM Tris-acetate buffer pH 8) of 20 µl samples containing 0.4 µg (lanes 1-4) or 0.2 µg (lanes 5-8) pCMV-luc plasmid DNA. Complexes were made by addition of a 100-fold concentrated C10 -C^G+ detergent solution (90 µM final concentration) to a solution of plasmid (60 µM) in HEPES buffer (15 mM, pH 7.4). The solution was gently mixed once and left to oxydize for 24 h. Lane 1: 60 µM plasmid DNA. Lane 2: 60 µM oxydized (C10 -C^G+)2/DNA complexes. Lane 3: as lane 2 in 3 mM final sodium dodecylsulfate before loading. Lane 4: as lane 2 in 6 mM dithiothreitol before loading. Lane 5: 60 µM plasmid incubated for 1 h at 37 °C with an equivalent volume of DMEM cell culture medium containing 10% serum. Lane 6: 60p µ M oxydized (C10 -C^G+)2/DNA complexes incubated as lane 5. […]

pCMVluc plasmid DNA = test: Oxidation rate of cysteine detergent into cystine lipid (free thiol, Ellman's reagent) with and without template DNA; details: 90 µM detergent, TrisHCl 15 mM pH 8.4 saturated with oxygen, with 60 µM plasmid DNA versus without
Protocol: Oxidative detergent dimerization was expected to be prone to a template effect of DNA (Fig. 1). Fast intra-complex reaction is a key aspect to formation of small and stable particles since extensive detergent dimerization into lipid prior to DNA binding would bring the system back to a classical cationic lipid/DNA complex formation/aggregation process. Enhanced air oxidation rate was indeed observed in the presence of DNA (Fig. 3).
The stock buffer solution (TrisHCl 15 mM pH 8.4) was saturated with oxygen by three vacuum/oxygen atmosphere cycles. C10 -C^G+ was injected from a concentrated stock solution to a final concentration of 90 µM. For each time point, a 0.5 ml aliquot was removed and mixed with 0.5 ml 2XEllman's reagent. The remaining free thiol was quantitated spectrophotometrically according to Riddles et al. (1979 ). For the template experiment, pCMVluc plasmid DNA was added to a final concentration of 60 µM before addition of the detergent.

calf thymus DNA [2] = test: Determination of the c.m.c. with a Langmuir balance, buffer containing DNA; details: buffer containing calf thymus DNA at 30 µM bp
Protocol: as §1
ii) c.m.c. of C10 and C11 cysteine with and without DNA. In an analogous manner as above the c.m.c. value of C10 cysteine and C11 cysteine was determined, the buffer containing calf thymus DNA at a concentration of 30 µM bp (Fig. 11A, B).

calf thymus DNA [3] = test: Determination of thiol functions of SC2 with Ellman's reagent during DNA complexation; details: after 10 min, no oxygen except that in the water
calf thymus DNA [4] = test: UV spectroscopy of spermine or SC2 particles at raised NaCl concentration; details: 76 µM DNA bases; for absorption at 330 nm as compared to the maximum optical density at 25 mM NaCl: 65 mM SC2
Protocol: The characterisation of the formed particles by UV spectroscopy was performed for different reasons. DNA in solution has a characteristic absorption spectrum between 240 and 310 nm. The absorption (optical density) has a maximum at 260 nm and 0 towards 310 nm. A change in DNA conformation should change the profile of the absorption spectrum. Moreover, the formation of particles results in an enhancement of the diffusion which can be perceived in UV by an enhancement of optical density.
Calf thymus DNA was complexed with spermine under conditions optimal for obtaining toroid structures as described by Naroditsky et al. (76 µM DNA bases, 65 mM spermine, 25 mM NaCl).

With `CCCCCCCCOC(=O)[C@@H](N)CS` [C8] the CMC [1] was > 2000 µM and the c.m.c. [1] was > 2000 µM.

With `CCCCCCCCCCNC(=O)C(CS)NC(=N)N` (stereo not drawn) [C10 -CG+, Guanidyl-cysteine-decylamide] the “DNA migration / stability during electrophoresis” value (pCMV-luc plasmid DNA) was “unable to retard DNA migration” and the “oxydation rate into cystine lipid” value (pCMVluc plasmid DNA) was “faster in the presence of template DNA”.

In the case of `CCCCCCCCCCOC(=O)[C@@H](N)CS` [C10], the CMC [1] is reported as 320 µM, the “CMC without DNA” value [1] is reported as 320 µM and the c.m.c. [1] is reported as 320 µM. For the same compound, the “CMC with DNA” value (calf thymus DNA [2]) was 50 µM.

In the case of `CCCCCCCCCCCOC(=O)[C@@H](N)CS` [C11], the CMC [1] is reported as 80 µM, the “CMC without DNA” value [1] is reported as 80 µM and the c.m.c. [1] is reported as 80 µM. For the same compound, the “CMC with DNA” value (calf thymus DNA [2]) was 32 µM.

For `CCCCCCCCCCCCOC(=O)[C@@H](N)CS` [C12], the CMC [1] was 15 µM and the c.m.c. [1] was 15 µM.

With `NC(CS)C(=O)NCCCNCCCCNCCCNC(=O)C(N)CS` (stereo not drawn) [SC2, spermine-N1, N12-bis-cysteineamide] the thiol groups oxydised (calf thymus DNA [3]) was 50%, the “absorption at 330 nm as compared to the maximum optical density at 25 mM NaCl” value (calf thymus DNA [4]; at 100 mM NaCl, raised one and a half hours after mixing) was 81% and the “absorption at 330 nm as compared to the maximum optical density at 25 mM NaCl” value (calf thymus DNA [4]; at 150 mM NaCl) was 71%.

In the case of `NCCCNCCCCNCCCN` [spermine, reference compound], the “observed UV spectrum after raising NaCl” value (calf thymus DNA [4]; NaCl raised to 100 mM, 65 mM spermine) is reported as “identical with the spectrum of the DNA that had been observed before complexation with spermine”.
